Test results published in ChEMBL document CHEMBL3885861, “Open TG-GATES”.

Species: Rattus norvegicus
Assay: Open TG-GATES - Regimen: Single
Type: toxicity, organism-based, Sprague-Dawley
Design: regimen Single, gender Male, age 6 weeks
Conditions: in vivo, po, 100 mg/kg, route gavage, dose level Middle; for APTT / Bas / Eos / Fbg / Hb / Ht / Lym / MCH / MCHC / MCV / Mono / Neu / PT / Plat / RBC / Ret / WBC: tissue Blood; for KIDNEY_L / KIDNEY_R / KIDNEY_TOTAL: tissue Kidney; for LIVER: tissue Liver; for A/G / ALP / ALT / AST / BUN / CRE / Ca / Cl / DBIL / GLC / IP / K / LDH / Na / PL / RALB / TBIL / TC / TG / TP / gamma-GTP: tissue Plasma

## CCOC(=O)C(C)(C)Oc1ccc(Cl)cc1 [CLOFIBRATE]
3 h
  TERMINAL_BW: 227.5 g
  APTT: 18.9 s
  Bas: 0%
  Eos: 1%
  Fbg: 231.4 mg/dL
  Hb: 13.6 g/dL
  Ht: 39%
  Lym: 76.6%
  MCH: 20.9 pg
  MCHC: 34.8%
  MCV: 60.1 fL
  Mono: 2.6%
  Neu: 19.2%
  PT: 12.3 s
  Plat: 126.5 x10_4/uL
  RBC: 649.6 x10_4/ul
  Ret: 7.1%
  WBC: 87.8 x10_2/uL
  KIDNEY_L: 1 g
  KIDNEY_R: 1 g
  KIDNEY_TOTAL: 1.9 g
  LIVER: 9.9 g
  A/G: 1.6
  ALP: 1012.4 IU/L
  ALT: 36.8 IU/L
  AST: 68.2 IU/L
  BUN: 10 mg/dL
  CRE: 0.3 mg/dL
  Ca: 10.7 mg/dL
  Cl: 102.6 meq/L
  DBIL: 0.2 mg/dL
  GLC: 201.6 mg/dL
  IP: 9 mg/dL
  K: 3.8 meq/L
  LDH: 203.6 IU/L
  Na: 139.6 meq/L
  PL: 157.6 mg/dL
  RALB: 3.5 g/dL
  TBIL: 0.3 mg/dL
  TC: 75.2 mg/dL
  TG: 121 mg/dL
  TP: 5.7 g/dL
  gamma-GTP: 0.4 IU/L
6 h
  TERMINAL_BW: 227.2 g
  APTT: 18.9 s
  Bas: 0%
  Eos: 1%
  Fbg: 232.6 mg/dL
  Hb: 13.7 g/dL
  Ht: 39.5%
  Lym: 79.6%
  MCH: 20.8 pg
  MCHC: 34.6%
  MCV: 60.1 fL
  Mono: 3.2%
  Neu: 16%
  PT: 12.5 s
  Plat: 132.6 x10_4/uL
  RBC: 657.6 x10_4/ul
  Ret: 7.3%
  WBC: 89.7 x10_2/uL
  KIDNEY_L: 1 g
  KIDNEY_R: 1 g
  KIDNEY_TOTAL: 2 g
  LIVER: 10.1 g
  A/G: 1.6
  ALP: 987.8 IU/L
  ALT: 29.8 IU/L
  AST: 62.8 IU/L
  BUN: 9.2 mg/dL
  CRE: 0.4 mg/dL
  Ca: 10.9 mg/dL
  Cl: 102.4 meq/L
  DBIL: 0.1 mg/dL
  GLC: 196.2 mg/dL
  IP: 9.4 mg/dL
  K: 4.2 meq/L
  LDH: 223.6 IU/L
  Na: 139 meq/L
  PL: 146.8 mg/dL
  RALB: 3.5 g/dL
  TBIL: 0.2 mg/dL
  TC: 73.8 mg/dL
  TG: 106.4 mg/dL
  TP: 5.7 g/dL
  gamma-GTP: 0.6 IU/L
